Measurements as given in US8796203B2, “Use of tight junction antagonists to treat inflammatory bowel disease” (Alba Therapeutics Corporation, priority 2006, dated 2014).

What was measured:
Type in all cases: in vivo
129/Svev/IL-10KO mouse = assay: Small intestinal permeability by lactulose mannitol test in IL-10 KO mouse; details: high dose AT-1001 (1 mg/ml in drinking water, ad libidum), FIGS. 1-4
Description: (§1) The purpose of this study is to determine the ability of AT-1001, administered daily in drinking water to alter intestinal permeability (measured by absorption/excretion of lactulose and mannitol) and to inhibit the development of colitis in the 129/Svev/IL-10KO mouse.
AT-1001 neat chemical will be administered ad libidum every day starting at day 1 to Group 3 at 0.1 mg/ml and Group 4 at 1 mg/ml in sterile water via the drinking water supply. Dosing of AT-1001 will be continued when the animals are in the metabolic cages for 22 hours. Probiotic conditioned medium will be given every morning to Group 2. The solution is prepared by dissolving 0.01 g in 10 ml of MRS medium and incubating it at 37° C. for 24 h. After incubation, the tube will be centrifuged 10 minutes at 10,000 rpm. The supernatant will be filtered through a 0.22 micron filter and diluted 1:10 with MRS medium. Animals will receive 30 μl of this dilution every morning. The conditioned media must be prepared fresh every morning.
Each week, food and water will be removed 4 hours prior to gavage. […]
During each intestinal permeability trial, all subjects will be gavaged with suc/lac/man/sucralose solution and placed in metabolic cages immediately after to enable urine collection. […] All sugars will be quantified by ion exchange HPLC. […]

[1] = tested on: 129/Svev/IL-10KO mouse colon; assay: Colonic permeability and electrical resistance, Ussing chamber measurements, IL-10 KO mouse; details: at 8 weeks of age, AT-1001 in drinking water, versus untreated animals
Description: as §1
(§2) FIG. 5-10 show the results of analysis of disease in the colon. Disease in the colon was evaluated at both 8 and 17 week time points. The former with Ussing chamber measurements and the latter with histology, mucosal cytokine secretion, MPO and sucralose permeability.

[2] = tested on: 129/Svev/IL-10KO mouse colon; assay: Colonic inflammation (histology, mucosal cytokine secretion, MPO) in IL-10 KO mouse; details: at 17 weeks; AT-1001 in drinking water
Description: as §1
Immediately upon expiration, stomachs, small intestines, and colons will be collected and weighed. Each tissue will be scored for macroscopic lesions to assess intestinal damage by the Study Pathologist. ELISAs will be performed on each tissue to measure the levels of MPO, IL-8, TNFα, and IFNγ. A section of the tissues will be fixed in formalin for HE histology. The day after the final intestinal permeability measures on day 77, all surviving animals will be euthanized and intestinal tissues collected and processed.
as §2

AT-1001 was tested, and the “increase in small intestinal permeability associated with development of disease” value (129/Svev/IL-10KO mouse) was “abrogated”, the colonic electrical resistance [1] was “prevented the reduction in electrical resistance” and the “colonic permeability to mannitol” value [1] was “reduced colonic permeability to mannitol”. For the same substance, the “tissue markers of colonic inflammation (neutrophil infiltration/MPO, TNF and IFN secretion over 24 hours)” value [2] was “reduced all tissue markers of colonic inflammation that were measured”.
